Source: patent US20140094365A1, “SYNERGISTIC WEED CONTROL FROM APPLICATIONS OF AMINOCYCLOPYRACHLOR AND TRICLOPYR” (Dow AgroSciences LLC, priority 2012, published 2014)

What was measured:
Assay in all cases: Field trial, post-emergence foliar weed control
Assay type in all cases: in vivo
[1] = tested on: common fiddleneck (Amsinckia intermedia, AMSIN)
Text: (§1) The (a) aminocyclopyrachlor or an agriculturally acceptable salt or ester thereof is mixed with or applied in combination with (b) triclopyr or an agriculturally acceptable salt or ester thereof in an amount sufficient to induce a synergistic herbicidal effect. […] As described in the Herbicide Handbook of the Weed Science Society of America, Ninth Edition, 2007, p. 429, “‘synergism’ [is] an interaction of two or more factors such that the effect when combined is greater than the predicted effect based on the response to each factor applied separately.” Synergistic in the herbicide context can mean that the use of (a) and (b) as defined above results in an increased weed control effect compared to the weed control effects that are possible with the use of (a) or (b) alone. In some embodiments, the damage or injury to the undesired vegetation caused by the compositions and methods disclosed herein is evaluated using a scale from 0% to 100%, when compared with the untreated control vegetation, wherein 0% indicates no damage to the undesired vegetation and 100% indicates complete destruction of the undesired vegetation. […] 22 (1967)
(§2) Field trials were conducted with applications made to established grassland with naturally occurring weed populations, or applications were made to bare ground with naturally occurring weed populations. The target plants were treated with post emergence foliar applications after they had reached at least 3-4 leaves or at least 2-5 inches in height. All treatments were applied using a randomized complete block trial design, with 3-4 replications per treatment.
(§3) Treatments consisted of aminocyclopyrachlor in acid form and triclopyr-butotyl, each in water and applied alone or in combination. Spray solutions were prepared using an appropriate amount of dilution to form a 2 liter (L) aqueous spray solution with active ingredients in single and two way combinations. Formulated compounds were applied to the plant material with a backpack sprayer equipped with 8003 or Turbojet nozzles calibrated to deliver 187 L/ha to 400 L/ha at a spray height of 18-20 inches (43-50 centimeters (cm)) above average plant canopy.
(§4) The treated plants were buckhorn plantain (Plantago lanceolata, PLALA), calvary clover (Medicago arabica, MEDAB), shepherd's purse (Capsella bursa-pastoris, CAPBP), common fiddleneck (Amsinckia intermedia, AMSIN), redmaids (Calandrinia ciliata, CLNCM), and broomweed (Sida acuta, SIDAC). The treated plots and control plots were rated blind at various intervals after application. Ratings were based on a scale of 0-100%, as discussed above, wherein 0% indicates no damage to the undesired vegetation and 100% indicates complete destruction of the undesired vegetation
(§5) Colby's equation was used to determine the herbicidal effects expected from the mixtures, as described above. The results were measured at 7 days, 14 days, 17 days, 24 days, 27 days, 60 days, and 72 days after the first application of the compositions. […] The herbicide tank mix combinations tested, application rates and ratios employed, plant species tested, and results are given below.

[2] = tested on: redmaids (Calandrinia ciliata, CLNCM); conditions: 17 DAYS
Text: as §1, §2, §3, §4, §5

[3] = tested on: buckhorn plantain (Plantago lanceolata, PLALA)
Text: as §1, §2, §3, §4, §5

[4] = tested on: broomweed (Sida acuta, SIDAC)
Text: as §1, §2, §3, §4, §5

[5] = tested on: shepherd's purse (Capsella bursa-pastoris, CAPBP)
Text: as §1, §2, §3, §4, §5

[6] = tested on: calvary clover (Medicago arabica, MEDAB)
Text: as §1, §2, §3, §4, §5

Nc1nc(C2CC2)nc(C(=O)O)c1Cl [Aminocyclopyrachlor, 6-amino-5-chloro-2-cyclopropylpyrimidine-4-carboxylic acid]
Mean % weed control ([1]; 17 DAYS, 35 g ae/ha alone): 0%
Mean % weed control ([1]; 24 DAYS, 35 g ae/ha alone): 0%
Mean % weed control ([2]; 35 g ae/ha alone): 16.67%
Mean % weed control ([3]; 14 DAYS, 18 g ae/ha alone): 37.5%
Mean % weed control ([3]; 14 DAYS, 35 g ae/ha alone): 40%
Mean % weed control ([3]; 27 DAYS, 18 g ae/ha alone): 22.5%
Mean % weed control ([3]; 27 DAYS, 35 g ae/ha alone (aminocyclopyrachlor)): 35%
Mean % weed control ([4]; 60 DAYS, 150 g ae/ha alone): 53%
Mean % weed control ([4]; 72 DAYS, 150 g ae/ha alone): 60%
Mean % weed control ([5]; 17 DAYS, 18 g ae/ha alone): 23.33%
Mean % weed control ([5]; 24 DAYS, 18 g ae/ha alone): 20%
Mean % weed control ([6]; 7 DAYS, 18 g ae/ha alone): 20%
Mean % weed control ([6]; 14 DAYS, 18 g ae/ha alone): 47.5%
Mean % weed control ([6]; 14 DAYS, 35 g ae/ha alone): 47.5%
Mean % weed control ([6]; 27 DAYS, 18 g ae/ha alone): 27.5%

CCCCOCCOC(=O)COc1nc(Cl)c(Cl)cc1Cl [Triclopyr-butotyl]
Mean % weed control ([1]; 17 DAYS, 70 g ae/ha alone): 0%
Mean % weed control ([1]; 24 DAYS, 70 g ae/ha alone): 0%
Mean % weed control ([2]; 70 g ae/ha alone): 20%
Mean % weed control ([2]; 140 g ae/ha alone): 23.33%
Mean % weed control ([3]; 14 DAYS, 70 g ae/ha alone): 7.5%
Mean % weed control ([3]; 27 DAYS, 35 g ae/ha alone (triclopyr-butotyl)): 2.5%
Mean % weed control ([3]; 27 DAYS, 70 g ae/ha alone): 3.75%
Mean % weed control ([4]; 60 DAYS, 360 g ae/ha alone): 2%
Mean % weed control ([4]; 72 DAYS, 360 g ae/ha alone): 10%
Mean % weed control ([5]; 17 DAYS, 35 g ae/ha alone): 40%
Mean % weed control ([5]; 17 DAYS, 70 g ae/ha alone): 46.67%
Mean % weed control ([5]; 24 DAYS, 35 g ae/ha alone): 40%
Mean % weed control ([5]; 24 DAYS, 70 g ae/ha alone): 58.33%
Mean % weed control ([6]; 7 DAYS, 70 g ae/ha alone): 13.75%
Mean % weed control ([6]; 14 DAYS, 70 g ae/ha alone): 10%
Mean % weed control ([6]; 27 DAYS, 35 g ae/ha alone): 2.5%
Mean % weed control ([6]; 27 DAYS, 70 g ae/ha alone): 5%
